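In this assay, cells in 96-well plates receive the compound at five concentrations for 48 hours. Endpoints are linearly interpolated between the surrounding concentrations. TGI: total growth inhibition.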
What was measured:
Assay in all cases: growth of human tumour cells (NCI), 48 h
DU-145 prostate = test system: DU-145 prostate
EKVX NSCLC = test system: EKVX NSCLC
HS 578T breast = test system: HS 578T breast
K-562 leukemia = test system: K-562 leukemia
MCF7 breast = test system: MCF7 breast
MDA-MB-435 = test system: MDA-MB-435
RPMI-8226 leukemia = test system: RPMI-8226 leukemia
RXF 393 renal = test system: RXF 393 renal
SNB-19 CNS = test system: SNB-19 CNS
T-47D breast = test system: T-47D breast

| Structure (SMILES) | TGI (DU-145 prostate) | TGI (EKVX NSCLC) | TGI (HS 578T breast) | TGI (K-562 leukemia) | TGI (MCF7 breast) | TGI (MDA-MB-435) | TGI (RPMI-8226 leukemia) | TGI (RXF 393 renal) | TGI (SNB-19 CNS) | TGI (T-47D breast) |
| --- | --- | --- | --- | --- | --- | --- | --- | --- | --- | --- |
| O=c1[nH]c2cc3cccnc3c(Cl)c2nc1C(F)(F)F | > 100 µM | > 100 µM | > 100 µM | > 100 µM | > 100 µM | > 100 µM | > 100 µM | > 100 µM | > 100 µM | 88.1 µM |
| Cc1cc(Nc2ccc(N=Nc3ccc(O)c4ncccc34)cc2)nc(C)n1 | 69.7 µM | > 79.3 µM | > 59.4 µM | 39.1 µM | 52.2 µM | 29.6 µM | 32.5 µM | 34.6 µM | > 100 µM | 35.6 µM |
| CC(C)(C)n1c(=O)n(C(=O)C(Cl)(Cl)Cl)n(C(=O)C(Cl)(Cl)Cl)c1=O | > 100 µM | > 100 µM | > 100 µM | > 100 µM | > 100 µM | > 100 µM | > 100 µM | > 100 µM | > 100 µM | > 100 µM |
| COc1ccc(C(=C(I)c2ccccc2)c2ccc(OC)cc2)cc1 | > 100 µM | > 100 µM | > 100 µM | > 100 µM | > 100 µM | > 100 µM | > 100 µM | > 100 µM | > 100 µM | > 100 µM |
| CCOC(=O)C1=C(C)C(C(=O)OC)/C(=C/c2cccc3cccnc23)C1=O (stereo not given) | > 10 µM | > 10 µM | > 10 µM | > 10 µM | > 10 µM | > 10 µM | > 10 µM | > 10 µM | > 10 µM | > 10 µM |
| CC(C)[C@H]1NC(=O)[C@H]2N=C(O[C@@H]2C)[C@@H]2CCCN2C(=O)[C@H](Cc2ccccc2)NC(=O)[C@@H]2CSC(=N2)[C@@H](Cc2ccccc2)NC(=O)[C@@H]2CSC1=N2 | > 100 µM | > 100 µM | > 100 µM | > 100 µM | > 100 µM | > 100 µM | 94.9 µM | > 100 µM | > 100 µM | > 100 µM |
| CC1CC[C@@]2(OC1)O[C@H]1C[C@H]3[C@@H]4CC[C@H]5C[C@@H](OC6OC(CO)C(OC7OC(CO)C(OC8OC(CO)C(O)C(OC9OC(C)C(OC%10OC(C)C(O)C(O)C%10O)C(O)C9O)C8OC8OCC(O)C(O)C8O)C(O)C7O)C(O)C6O)CC[C@]5(C)[C@H]4CC(=O)[C@]3(C)[C@H]1[C@@H]2C (stereo not given in full) | 40.4 µM | 40.4 µM | 50.7 µM | 32.7 µM | 31.8 µM | 35.7 µM | 33.3 µM | 35.7 µM | 39.4 µM | 43.2 µM |
| CC(NC(=O)OCc1ccccc1)NC(=O)C(CC(=O)OC(C)(C)C)NC(=O)OC(C)(C)C (stereo not given) | > 100 µM | > 100 µM | > 100 µM | > 100 µM | > 100 µM | > 100 µM | > 100 µM | > 100 µM | > 100 µM | > 100 µM |
| Nc1ccc(-c2nc3cc(F)ccc3s2)cc1I | > 100 µM | 43.9 µM | > 75.1 µM | > 100 µM | 3.91 µM | > 100 µM | > 100 µM | 31.3 µM | 54.9 µM | 97.2 µM |
| N#Cc1c(N2CCCC2)ncn(Cc2ccccc2)c1=S | > 100 µM | > 100 µM | > 100 µM | > 100 µM | > 100 µM | > 100 µM | > 100 µM | > 100 µM | > 100 µM | > 100 µM |
| COC(=O)c1ccccc1C#CCCCOS(C)(=O)=O | > 10 µM | > 10 µM | > 10 µM | > 10 µM | > 10 µM | > 10 µM | > 10 µM | > 10 µM | > 10 µM | > 10 µM |
| C=CC(C)(C)N[C@@H](C(=O)N1CCC[C@H]1c1nc(-c2nc(C(=O)OCC=C(C)C)c(C)o2)c(C)o1)C(C)C | 34 µM | > 100 µM | 40.2 µM | > 100 µM | 91.4 µM | 39.8 µM | 61.8 µM | 91.8 µM | 55 µM | 73.4 µM |
| Cc1cc(=O)n2nc(CSc3nnc(N)s3)sc2n1 | > 100 µM | > 100 µM | > 100 µM | > 100 µM | > 100 µM | > 100 µM | > 100 µM | > 100 µM | > 100 µM | > 100 µM |
| COc1ccc(/C=C2\CC3C4CC=C5C[C@@H](O)CC[C@]5(C)C4CC[C@]3(C)\C2=N\O)cc1OC (stereo not given in full) | > 100 µM | > 100 µM | > 100 µM | > 100 µM | > 100 µM | > 100 µM | > 100 µM | > 100 µM | > 100 µM | > 100 µM |
| Cc1nccn1S(=O)(=O)c1ccc(Br)cc1Br | > 100 µM | 96.8 µM | > 100 µM | > 100 µM | > 100 µM | 46 µM | 47.4 µM | 76.3 µM | 90.3 µM | > 100 µM |
| COC(=O)/C=C\C(C#N)(C#N)N=Cc1ccc(C)s1 | 9.11 µM | 15.3 µM | 43.6 µM | > 100 µM | 4.05 µM | 7.65 µM | > 32.5 µM | 3.42 µM | 32.8 µM | 3.92 µM |

| Structure (SMILES) | TGI (DU-145 prostate) | TGI (EKVX NSCLC) | TGI (HS 578T breast) | TGI (K-562 leukemia) | TGI (MCF7 breast) | TGI (MDA-MB-435) | TGI (RPMI-8226 leukemia) | TGI (RXF 393 renal) | TGI (SNB-19 CNS) | TGI (T-47D breast) |
| --- | --- | --- | --- | --- | --- | --- | --- | --- | --- | --- |
| COc1ccc(/C=C(\C(=C/c2ccc(OC)cc2)[N+](=O)[O-])[N+](=O)[O-])cc1 | 24.6 µM | 29.8 µM | 43.9 µM | > 34.5 µM | 27.3 µM | 12.1 µM | 13 µM | 4.33 µM | 30.2 µM | 35.7 µM |
| O=C(NCCCCNCCCNC(=O)c1ccccc1)c1ccccc1 | > 100 µM | > 100 µM | > 100 µM | > 100 µM | > 100 µM | > 100 µM | > 100 µM | > 100 µM | > 100 µM | > 100 µM |
| O=C(c1ccccc1)c1c(C(F)(F)F)n([O-])c2cc(Cl)c(Cl)cc2[n+]1=O | 0.985 µM | 6.96 µM | 2.9 µM | 6.09 µM | 1.24 µM | 3.08 µM | 1.15 µM | 5.52 µM | 3 µM | 3.03 µM |
| COC(=O)c1ccc(CCc2cc(O)ccc2O)cc1 | > 100 µM | 32.4 µM | > 39.5 µM | > 31.6 µM | > 62.2 µM | 21.7 µM | 4.16 µM | 20.9 µM | > 62.7 µM | 7.91 µM |
| O=c1c2ccccc2n2nnc3ccc(NCCCNCCNCCCNc4ccc5nnn6c7ccccc7c(=O)c4c56)c1c32 | > 50 µM | 20.3 µM | 37.6 µM | > 50 µM | 6.92 µM | > 50 µM | > 12.4 µM | 22.6 µM | 35.3 µM | > 50 µM |
| CCc1nn(S(=O)(=O)c2ccc(C)cc2)c2c1CS(=O)(=O)CC2 | > 100 µM | > 100 µM | 87.7 µM | > 100 µM | > 100 µM | > 100 µM | > 100 µM | > 100 µM | > 100 µM | > 100 µM |
| COc1ccc2c(c1)nc1n2C(N)=Nc2ccccc2S1 | > 100 µM | > 100 µM | > 100 µM | > 57.8 µM | > 100 µM | > 100 µM | > 82.2 µM | > 78.3 µM | > 100 µM | > 92.3 µM |
| CC1(C)[C@@H](Cn2cnc3c(=O)[nH]c(N)nc32)CC[C@@]1(C)CO | > 100 µM | > 100 µM | > 100 µM | > 100 µM | > 100 µM | > 100 µM | > 100 µM | > 100 µM | > 100 µM | > 100 µM |
| CC(NC1=NCCO1)c1cccc([N+](=O)[O-])c1 (stereo not given) | > 100 µM | > 100 µM | > 100 µM | > 100 µM | > 100 µM | > 100 µM | > 100 µM | > 100 µM | > 100 µM | > 100 µM |
| N#CC(C#N)=Cc1c(O)ccc2ccccc12 | 27.8 µM | 26.3 µM | 55.5 µM | 24.6 µM | 34.3 µM | 30 µM | 38.6 µM | 31.2 µM | 30.5 µM | 46.4 µM |
| O=C1C=C2CO[C@H]3OC[C@H](O)[C@@H]1[C@@H]23 | > 100 µM | > 100 µM | > 100 µM | > 100 µM | > 100 µM | > 100 µM | 44.8 µM | 42 µM | > 100 µM | 67.3 µM |
| Cc1ccc(-n2c(O)c3c(N)n[nH]c3c(C#N)c2=O)cc1 | > 100 µM | > 100 µM | > 100 µM | > 100 µM | > 100 µM | > 100 µM | > 100 µM | > 100 µM | > 100 µM | > 100 µM |
| Cc1cc(NS(=O)(=O)c2ccc(NC(=O)c3cccc4c(NNc5ccc(S(=O)(=O)N=C(N)N)cc5)c5ccccc5nc34)cc2)no1 | > 100 µM | 93.2 µM | > 100 µM | > 100 µM | > 100 µM | > 100 µM | > 100 µM | > 100 µM | > 100 µM | > 100 µM |
| COc1ccc(-c2nc(-c3cc4ccccc4oc3=O)cs2)cc1 | > 100 µM | > 100 µM | > 100 µM | > 100 µM | > 100 µM | > 100 µM | > 100 µM | > 100 µM | > 100 µM | > 100 µM |
| C=C1C(=O)O[C@H]2C/C(C)=C/CC/C(C)=C/CC[C@@](C)(O)[C@@H](I)C[C@@H]12 | 22.2 µM | 20.8 µM | 21.5 µM | 13.5 µM | 25.1 µM | 23.2 µM | 12.9 µM | 13.2 µM | 30 µM | 32.1 µM |
| O=C(OCCN1CCCCC1)C(c1ccccc1)C1(O)CCSCC1 (stereo not given) | > 100 µM | > 100 µM | > 100 µM | > 100 µM | > 100 µM | > 100 µM | > 100 µM | > 100 µM | > 100 µM | > 100 µM |

Reference: PubChem BioAssay (NCI)
